Results published in patent US12447171B2 (CELGENE QUANTICEL RESEARCH, INC., priority 2019, dated 2025).
pEC50: −log10 of the molar value. Peptide text beside a SMILES is read from it. * marks the point of attachment. Cbz = O=C(OCc1ccccc1)*; CH2F = FC*

Tests used:
[1] = system: CD11b, CD14, and CD86 surface marker expression; experiment: Flow cytometry of differentiation markers in AML cell lines; type: cell-based
Experimental: FACS samples were acquired using BD FACSCanto II. Cell viability was also examined by FACS analysis with Fixable Viability dye 780 (Thermofisher Scientific, Waltham, MA) according to the manufacturer's instructions. Briefly, 10^5 cells were seeded in U bottom 96 well plate, next day treated with 9 doses of CC-90011 (started from 10 uM, 3-fold dilution down), cells were incubated at 37° C. for 6 days and harvested for staining. Cells were washed once with DPBS and stained with 1×FVS780 and washed twice with staining buffer. The samples were stained with 1:200 dilution surface antibodies. Results were then analyzed with FlowJo V10 software (TreeStar Inc., Ashland, OR).

[2] = system: 22 AML cell lines; experiment: Cell viability assay, single agents and 5-azacytidine-venetoclax combination, AML cell line panel; conditions: number of 22 AML cell lines
[3] = system: BaF-FLT3(WT); experiment: Cell viability assay (Cell Titer-Glo), BaF3 cells expressing FLT3; type: cell-based; conditions: Mus musculus
[4] = system: BaF-FLT3-ITD; experiment: as above; type: cell-based; conditions: Mus musculus
[5] = system: BaF-FLT3(D835Y); experiment: as above; type: cell-based; conditions: Mus musculus
[6] = system: MOLM-13 xenograft model; experiment: Disseminated MOLM-13 xenograft survival study; type: in vivo, mice; conditions: MOLM-13, NOD/SCID mice; single agent PO qd×21: midostaurin 100 mg/kg, gilteritinib 4 mg/kg, venetoclax 100 mg/kg; vehicle=19 days
Experimental: (§1) LEED models oral administration of AZA, while HELD models intravenous or subcutaneous administration of AZA.
The animals were fed ad libitum water (reverse osmosis, 1 ppm Cl), and NIH 31 Modified and Irradiated Lab Diet® consisting of 18.0% crude protein, 5.0% crude fat, and 5.0% crude fiber. The mice were housed on irradiated Enrich-o'cobs™ Laboratory Animal Bedding in static microisolators on a 12-hour light cycle at 20-22° C. (68-72° F.) and 40-60% humidity.
(§2) On each day of dosing, an appropriate amount of gilteritinib was dissolved in 0.5% methylcellulose in DI water to yield a dosing solution at 0.4 mg/mL. Each week, an appropriate amount of venetoclax was dissolved in 10% ethanol:30% PEG400:60% phosal 50 propylene glycol to yield a dosing solution at 10 mg/mL. […] Each test mouse received 5×10^6 MOLM-13 cells or 10^7 MV4-11 cells (0.2 mL cell suspension) by tail vein injection. Dosing was initiated three days after tumor cell inoculation, which was designated as Day 1 of the study. NOD/SCID mice (n=9-12/group) were randomized according to body weight and dosed. […] Vehicle was administered both IP and PO. The dosing volume for all treatments was 10 mL/kg, scaled to the weight of each individual animal.
(§3) Animals were monitored individually for an endpoint of moribundity due to progression of the leukemia. Full hind limb paralysis, severe ocular proptosis, or moribundity was considered sufficient for euthanasia due to tumor progression. Moribund animals were defined as sick animals unable to reach food and water. These deaths were classified as death on survival study. The time to endpoint (TTE), in days, was recorded for each mouse that died of its disease or was euthanized due to extensive tumor progression. […] An animal classified as having died from treatment-related (TR) causes was assigned a TTE value equal to the day of death. An animal classified as having died from non-treatment-related (NTR) causes, or used for sampling before endpoint, was excluded from TTE calculations and all further analyses. The median TTE value was calculated for each group. The median TTE of treated mice was expressed as a percentage of the median TTE of the control mice (% T/C), and the increase in life span (ILS) was calculated as: ILS=% T/C−100%, where T=median TTE treated, and C=median TTE control. Thus, if T=C, ILS=0%.
Animals were weighed daily on Days 1-5, then twice per week until the completion of the study. […] Individual body weight loss was monitored as per protocol and any animal that exceeded the limits for acceptable body weight loss was euthanized. Group mean body weight loss also was monitored as per protocol. Dosing was suspended in any group that exceeded the limits for acceptable mean body weight loss. If mean body weight recovered, then dosing may be resumed in that group, but at a lower dosage or less frequent dosing schedule. Acceptable toxicity for the maximum tolerated dose was defined as a group mean body-weight loss of less than 20% during the study and not more than one TR death among ten treated animals. […] A death was classified as NTR if there was no evidence that death was related to treatment side effects or tumor progression. Non-treatment-related deaths may be further characterized based on cause of death. A death may be classified as NTRa if it resulted from an accident or human error. A death may be classified as NTRu if the cause of death is unknown and there is no available evidence of death related to treatment side effects, metastasis, accident or human error, although death due to these etiologies cannot be excluded. Survival was analyzed by the Kaplan-Meier method, based on TTE values. The logrank (Mantel-Cox) and Gehan-Breslow-Wilcoxon tests determined the significance of the difference between the overall survival experiences (survival curves) of two groups, based on TTE values.
These experiments were repeated with a second FLT3-ITD cell line, MOLM-13.

[7] = system: MV4-11 xenograft models; experiment: Disseminated MV4-11 xenograft survival study; type: in vivo; conditions: MV4-11, NCG mice; single agent PO qd×21: venetoclax 100 mg/kg, midostaurin 100 mg/kg; vehicle=29.5
Experimental: as §1
as §2, with “NOD/SCID mice (n=9-12/group) were randomized according to body weight and dosed.” left out
as §3
Animals were weighed daily on Days 1-5, then twice per week until the completion of the study. […] Individual body weight loss was monitored as per protocol and any animal that exceeded the limits for acceptable body weight loss was euthanized. Group mean body weight loss also was monitored as per protocol. Dosing was suspended in any group that exceeded the limits for acceptable mean body weight loss. If mean body weight recovered, then dosing may be resumed in that group, but at a lower dosage or less frequent dosing schedule. […] Survival was analyzed by the Kaplan-Meier method, based on TTE values. The logrank (Mantel-Cox) and Gehan-Breslow-Wilcoxon tests determined the significance of the difference between the overall survival experiences (survival curves) of two groups, based on TTE values.

[8] = system: engineered BaF3 cell lines expressing either wild-type FLT3, FLT3-ITD or FLT3 (D835Y); experiment: Cell viability and synergy, panel of engineered BaF3 cell lines; type: cell-based; conditions: Mus musculus, FIG. 10A, read-out: EC50 (resistant to venetoclax)
[9] = system: MCL-1; experiment: Western blot of MCL-1 in AML cell lines; type: cell-based; conditions: MV4-11; 20 μM Z-VAD-FMK for 1 hour before 5-azacytidine for another 16 hours
Experimental: Lysates were quantified using a bicinchoninic acid (BCA) kit (Piece/Thermo Fisher, Waltham, MA). 20 to 30 μg protein was resolved on a 4-12% SDS-PAGE gel, transferred to PVDF membranes (80V/90 minute by wet-transfer), and blocked with Oddysey TBS blocking buffer for 1 hour and then probed with appropriate primary antibodies overnight at 4° C. using dilution as recommended by manufacturer. Membranes were washed three times for a total of 30 minutes and then incubated with secondary antibodies at room temperature in the dark for 1 hour. After another three washes, Odyssey infrared imaging system and companion software (LI-COR biosciences, Lincoln, NE, USA) were used to scan immunoblot membranes and to quantify band intensity according to the manufacturer's instructions. The ratio of proteins of interest to loading control in treated samples was normalized to the corresponding ratio in untreated cells. Antibodies used for immunoblotting were purchased from the following sources: BCL-2 (sc-7382), MCL1- (sc-819) from Santa Cruz Biotechnology (Dallas, TX, USA, Bim (2819), caspase-3 (9664) from Cell Signaling Technology; beta-Actin (A2228) from Sigma-Aldrich; DNMTI (ab188453) from AbCam; TRDye 680 goat anti-rabbit and IRDye 800 goat anti-mouse secondary antibodies (#925-68073 and #925-32212) were purchased from Li-COR Biosciences (Lincoln, NE).

| Compound | pEC50 [3] | pEC50 [4] | pEC50 [5] | Median survival [6] | Median survival [7] | also measured |
| --- | --- | --- | --- | --- | --- | --- |
| COc1ccc(-c2c(-c3ccc(C#N)c(F)c3)nc(N3CCC(N)CC3)n(C)c2=O)cc1F [CC-90011, 4-[2-(4-amino-piperidin-1-yl)-5-(3-fluoro-4-methoxy-phenyl)-1-methyl-6-oxo-1,6-dihydro-pyrimidin-4-yl]-2-fluoro-benzonitrile] |  |  |  |  |  | change in differentiation markers ([1]; five cell lines: HEL, KG-1, MOLM-13, KG-1a, and NOMO-1): no changes in any of these differentiation markers; cell lines with increased expression of at least one differentiation marker ([1]; number of 22 AML cell lines following CC-90011 treatment): Seventeen; cell lines sensitive to CC-90011 (single agent cytotoxicity) [2]: Eleven |
| CCc1nc(C(N)=O)c(Nc2ccc(N3CCC(N4CCN(C)CC4)CC3)c(OC)c2)nc1NC1CCOCC1 [Gilteritinib] | 8.40 | 8.74 | 8.74 | 34 days |  |  |
| CO[C@@H]1[C@H](N(C)C(=O)c2ccccc2)C[C@H]2O[C@]1(C)n1c3ccccc3c3c4c(c5c6ccccc6n2c5c31)C(=O)NC4 [Midostaurin] |  |  |  | 34 days | 57 |  |
| CC1(C)CCC(CN2CCN(c3ccc(C(=O)NS(=O)(=O)c4ccc(NCC5CCOCC5)c([N+](=O)[O-])c4)c(Oc4cnc5[nH]ccc5c4)c3)CC2)=C(c2ccc(Cl)cc2)C1 [Venetoclax] | < 5.00 | < 5.00 | 5.36 | 29 days | 35.5 | pEC50 [8]: < 6.00 |
| COC(=O)C[C@H](NC(=O)[C@H](C)NC(=O)[C@@H](NC(=O)OCc1ccccc1)C(C)C)C(=O)CF [Z-VAD-FMK] (Cbz-Val-Ala-Asp(OMe)-CH2F) |  |  |  |  |  | effect on MCL-1 degradation by 5-azacytidine [9]: partially ablated |
